The target of one assay is T1, human CRTH2 (Homo sapiens, UniProt Q9Y5Y4).
T1 construct: expressed in transfected cells; host or cells: HEK293 cells, stably transfected; membrane preparation
T1 sequence (Q9Y5Y4 1-395): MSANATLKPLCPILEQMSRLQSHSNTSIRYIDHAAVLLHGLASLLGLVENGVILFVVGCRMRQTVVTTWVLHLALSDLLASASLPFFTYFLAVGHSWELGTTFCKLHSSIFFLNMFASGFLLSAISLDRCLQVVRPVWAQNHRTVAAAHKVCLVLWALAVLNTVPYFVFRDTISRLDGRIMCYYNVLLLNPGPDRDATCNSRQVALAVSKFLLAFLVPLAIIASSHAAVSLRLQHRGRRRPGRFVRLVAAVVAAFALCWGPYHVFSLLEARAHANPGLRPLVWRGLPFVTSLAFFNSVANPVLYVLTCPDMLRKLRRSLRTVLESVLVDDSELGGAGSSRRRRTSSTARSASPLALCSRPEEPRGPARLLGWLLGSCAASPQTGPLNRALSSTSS
Nature of the assay: Human CRTH2 binding assay (3H-labeled PGD2 binding, membranes of HEK293 cells transfected with human CRTH2). The following applies: membrane preparation of HEK293 cells with human CRTH2; 2 nM 3H-labeled PGD2; 4° C., 120 minutes; read-out: IC50 (nM), in vitro human CRTH2 binding assay. On the procedure:
Human CRTH2 Binding Assay
To evaluate CRTH2 binding activities of example compounds, PGD2 binding assay was performed as modifications of former paper (Journal of pharmacology and experimental therapeutics, 2003, 306(2), pp. 463-470).
HEK293 cells stably transfected with human CRTH2 cDNA were suspended in assay buffer (10 mM BES, 1 mM EDTA, 10 mM MnCl2, pH=7.0) and broken into pieces by strong mixture using injection needle. The membrane preparation at the concentration of 50 μg protein was mixed with various concentrations of compounds. Binding reaction was initiated by an addition of ^3H-labeled PGD2 to a final concentration of 2 nM and the reaction mixture was incubated at 4° C. for 120 minutes. The reaction was terminated by filtration using GF/B plate (PerkinElmer) which was washed with wash buffer (10 mM BES, 0.01% BSA). ^3H-labeled PGD2 which binds to CRTH2 were captured on this plate and the radioactivity was measured. The total and non-specific binding were determined in the absence and presence of 10 μM DK-PGD2. The binding activity of each compound was expressed as IC50 value.

Assay [1] concerns Guinea Pig antigen-induced hyper-responsiveness. Nature of the assay: Guinea Pig antigen-induced hyper-responsiveness model. Type of assay: in vivo. The following applies: OVA-sensitized male Hartley guinea pigs, AUC of peak inflation pressure versus methacholine dose. On the procedure:
Guinea Pig Antigen-Induced Hyper-Responsiveness Model
To evaluate anti asthma efficacy of the compounds, they were administered to Guinea Pig antigen-induced hyper-responsiveness model which is cited in the literature with minor modifications (Agents Actions, 1992, 37, pp. 162-164).
Male Hartley guinea pigs were actively sensitized to ovalbumin (OVA) by i.p. injection of 20 mg in 0.9% saline at day 0 and 1 mg at day 2. Animals were exposed for 10 minutes on days 14-21 to an aerosol of 0.5% OVA solution in 0.9% saline or saline alone generated from a nebulizer. All animals were treated with compound by p.o. administration 60 minutes prior to the aerosol and 1 mg/kg pyrilamine by i.p. injection 30 minutes prior to the aerosol. On day 22, animal was anesthetized with urethane (1.5 g/kg). The trachea was cannulated and the animal was mechanically ventilated (60 strokes/minute; 1 mL/100 g body weight) with a small animal respirator. Pulmonary inflation pressure (PIP) was monitored with a pressure transducer. Doses of methacholine (0-14 μg/kg) were administered sequentially (3 minutes intervals) by the right jugular vein to each animal. The area under the peak inflation pressure versus methacholine dose curve (AUC) was calculated for each animal.

For `O=C(O)Cn1ccc2c(CCCn3cc(C(c4ccccc4)c4ccccc4)ccc3=O)cccc21` [Example 4, (4-{3-[5-(diphenylmethyl)-2-oxopyridin-1(2H)-yl]propyl}-1H-indol-1-yl)acetic acid], the concentration for half-maximal inhibition (IC50) at human CRTH2 worked out at 3.6 nM.
Turning to `O=C(O)COc1cccc(CCCn2cc(C(c3ccccc3)c3ccccc3)ccc2=O)c1` [Example 10, (3-{3-[5-(diphenylmethyl)-2-oxopyridin-1(2H)-yl]propyl}phenoxy)acetic acid], on human CRTH2, the IC50 was determined as 42 nM. Also, the “inhibition (%)” value in assay [1] (dose 10 mg/kg p.o.) was 100%.
Regarding `C[C@H](Oc1cccc(CCCn2nc(C(c3ccccc3)c3ccccc3)ccc2=O)c1)C(=O)O` [Example 59, (2S)-2-(3-{3-[3-(Diphenylmethyl)-6-oxopyridazin-1(6H)-yl]propyl}phenoxy)propanoic acid], at human CRTH2, the IC50 stood at 13 nM. For the same compound, in assay [1] (dose 3 mg/kg p.o.), the “inhibition (%)” value worked out at 93%.
Take `O=C(O)CCCOc1cccc(CCCn2nc(C(c3ccccc3)c3ccccc3)ccc2=O)c1` [Example 69, 4-(3-{3-[3-(Diphenylmethyl)-6-oxopyridazin-1(6H)-yl]propyl}phenoxy)butanoic acid]: the half-inhibitory concentration (IC50) at human CRTH2 turned out to be 14 nM.
Still for that read-out and setting: in the case of `O=C(O)COc1cccc(CCCN2C(=O)OC[C@@H]2C(c2ccccc2)c2ccccc2)c1` [Example 72, (3-{3-[(4S)-4-(Diphenylmethyl)-2-oxo-1,3-oxazolidin-3-yl]propyl}phenoxy)acetic acid] it was 5.5 nM.
On to `O=C(O)CCCOc1cccc(SCCn2cc(C(c3ccccc3)c3ccccc3)ccc2=O)c1` [Example 84, 4-[3-({2-[5-(Diphenylmethyl)-2-oxopyridin-1(2H)-yl]ethyl}sulfanyl)phenoxy]butanoic acid], for which the 50% inhibitory concentration (IC50) at human CRTH2 was found to be 8.1 nM. Also, the “inhibition (%)” value in assay [1] (dose 3 mg/kg p.o.) stood at 100%.
Regarding `NS(=O)(=O)c1cccc(C(=O)N(CCCc2cccc(OCC(=O)O)c2)CCC(c2ccccc2)c2ccccc2)c1` [Example 99, [3-(3-{[3-(Aminosulfonyl)benzoyl](3,3-diphenylpropyl)amino}propyl)phenoxy]acetic acid], the IC50 at human CRTH2 is 4.8 nM.
Consider `O=C(O)CCCOc1cccc(CCCn2nc(C(c3ccc(F)cc3)c3ccc(F)cc3)ccc2=O)c1` [Example 111, 4-[3-(3-{3-[Bis(4-fluorophenyl)methyl]-6-oxopyridazin-1(6H)-yl}propyl)phenoxy]butanoic acid], for which, on human CRTH2, the IC50 amounted to 18 nM. Moreover, the “inhibition (%)” value in assay [1] (dose 3 mg/kg p.o.) is on record as 89%.
Regarding `O=C(O)CCCOc1cccc(CCCn2cc(C(c3ccc(F)cc3)c3ccc(F)cc3)ccc2=O)c1` [Example 112, 4-[3-(3-{5-[Bis(4-fluorophenyl)methyl]-2-oxopyridin-1(2H)-yl}propyl)phenoxy]butanoic acid], the IC50 on human CRTH2 amounted to 24 nM. The “inhibition (%)” value in assay [1] (dose 1 mg/kg p.o.) is 60%.
Consider `O=C(O)COc1cccc(CCCn2cc(-c3ccccc3-c3cccc4ccccc34)ccc2=O)c1` [Example 123, [3-(3-{5-[2-(1-Naphthyl)phenyl]-2-oxopyridin-1(2H)-yl}propyl)phenoxy]acetic acid], for which, at human CRTH2, the 50% inhibitory concentration (IC50) was found to be 7.6 nM.

As a reminder, the IC50 is the concentration needed to halve the response being measured.

(Values after patent US8273745B2, “Polycyclic acid compounds useful as CRTH2 antagonists and antiallergic agents” (Astellas Pharma Inc, priority 2006, dated 2012).)
